According to the supplement of paper PMC10307832:

Columns and labels:
Assay in all cases: relative viability (nuclei count vs DMSO), 5 days (fraction); higher = more cells survive
[1] = compound: O=C(C[C@H]1NCCC[C@@H]1O)Cn1cnc2cc(Br)c(Cl)cc2c1=O (racemic) [Halofuginone] + Nc1nc2[nH]cc(CCc3ccc(C(=O)N[C@@H](CCC(=O)O)C(=O)O)cc3)c2c(=O)[nH]1 [Pemetrexed] (partner 0.2 µM)
Summary of the method: (§1)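 Lung cancer cell lines in 1536-well plates were dosed by pin tool the day after seeding, either with one drug alone or with a fixed anchor-drug dose plus five library-drug doses (not always all listed) in √10 steps. After 5 days, cells were fixed and their nuclei stained in one step (final 0.05% Triton X-100, 1% formaldehyde, 1 ug/ml Hoechst), then counted on 4× images. Relative viability is the nuclei count in treated wells divided by that in vehicle wells. Values are medians of duplicate plates.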

[2] = compound: O=C(C[C@H]1NCCC[C@@H]1O)Cn1cnc2cc(Br)c(Cl)cc2c1=O (racemic) [Halofuginone] + CC(=O)c1c(C)c2cnc(Nc3ccc(N4CCNCC4)cn3)nc2n(C2CCCC2)c1=O [Palbociclib] (partner 0.5 µM)
Summary of the method: as §1

Cediranib + Dasatinib = compound: COc1cc2c(Oc3ccc4[nH]c(C)cc4c3F)ncnc2cc1OCCCN1CCCC1 [Cediranib] + Cc1nc(Nc2ncc(C(=O)Nc3c(C)cccc3Cl)s2)cc(N2CCN(CCO)CC2)n1 [Dasatinib] (partner 0.075 µM)
Summary of the method: as §1

Cediranib + Bortezomib = compound: COc1cc2c(Oc3ccc4[nH]c(C)cc4c3F)ncnc2cc1OCCCN1CCCC1 [Cediranib] + CC(C)C[C@H](NC(=O)[C@H](Cc1ccccc1)NC(=O)c1cnccn1)B(O)O [Bortezomib] (partner 0.002 µM)
Summary of the method: as §1

| Cell Line | relative viability ([1]; first compound 0.001 µM) | relative viability ([1]; first compound 0.003162 µM) | relative viability ([1]; first compound 0.01 µM) | relative viability ([1]; first compound 0.03162 µM) | relative viability ([1]; first compound 0.1 µM) | relative viability ([2]; first compound 0.001 µM) | relative viability ([2]; first compound 0.003162 µM) | relative viability ([2]; first compound 0.01 µM) | relative viability ([2]; first compound 0.03162 µM) | relative viability ([2]; first compound 0.1 µM) | relative viability (Cediranib + Dasatinib; first compound 0.04 µM) | relative viability (Cediranib + Dasatinib; first compound 0.1265 µM) | relative viability (Cediranib + Dasatinib; first compound 0.4 µM) | relative viability (Cediranib + Dasatinib; first compound 1.265 µM) | relative viability (Cediranib + Dasatinib; first compound 4 µM) | relative viability (Cediranib + Bortezomib; first compound 0.04 µM) | relative viability (Cediranib + Bortezomib; first compound 0.1265 µM) | relative viability (Cediranib + Bortezomib; first compound 0.4 µM) | relative viability (Cediranib + Bortezomib; first compound 1.265 µM) | relative viability (Cediranib + Bortezomib; first compound 4 µM) |
| --- | --- | --- | --- | --- | --- | --- | --- | --- | --- | --- | --- | --- | --- | --- | --- | --- | --- | --- | --- | --- |
| NCI-H1755 | 0.418 | 0.469 | 0.413 | 0.423 | 0.484 | 0.436 | 0.479 | 0.421 | 0.491 | 0.418 | 0.471 | 0.59 | 0.343 | 0.463 | 0.424 | 0.971 | 0.925 | 0.878 | 0.991 | 0.958 |
| HCC-15 | 0.214 | 0.248 | 0.226 | 0.231 | 0.235 | 0.802 | 0.823 | 0.731 | 0.713 | 0.65 | 0.662 | – | 0.585 | 0.707 | 0.608 | 1.06 | – | 1 | 1.12 | 1.01 |
| EMC-BAC-2 | 0.482 | 0.462 | 0.486 | 0.524 | 0.438 | 0.545 | 0.531 | 0.506 | 0.536 | 0.37 | 0.316 | 0.603 | 0.365 | 0.309 | 0.314 | 1.06 | 0.69 | 1.03 | 1.02 | 1.07 |
| NCI-H1734 | 0.408 | 0.438 | 0.401 | 0.441 | 0.488 | 0.338 | 0.361 | 0.33 | 0.32 | 0.2 | 0.463 | 0.647 | 0.479 | 0.364 | 0.518 | 0.831 | 0.814 | 0.806 | 0.837 | 1.24 |
| HOP-62 | 0.326 | 0.293 | 0.333 | 0.306 | 0.295 | 0.435 | 0.427 | 0.426 | 0.375 | 0.227 | 0.698 | 0.909 | 0.577 | 0.617 | 0.77 | 0.322 | – | 0.672 | 0.68 | 0.842 |
| SW 1573 | 0.914 | – | 0.775 | 0.574 | 0.208 | 0.422 | – | 0.392 | 0.23 | 0.106 | 0.646 | 0.661 | 0.43 | 0.389 | 0.524 | 1.1 | 1.04 | 0.899 | 1.05 | 1.09 |
| SK-LU-1 | 1.03 | 0.981 | 0.912 | 0.921 | 0.409 | 0.389 | 0.439 | 0.369 | 0.368 | 0.319 | 0.184 | 0.244 | 0.175 | 0.175 | 0.202 | 1.22 | 1.24 | 1.13 | 0.956 | 1.17 |
| NCI-H23 | 0.637 | 0.582 | 0.494 | 0.521 | 0.495 | 0.694 | 0.501 | 0.479 | 0.562 | 0.331 | 0.729 | – | 0.7 | 0.375 | 1.07 | 1.07 | – | 0.938 | 0.907 | 1.32 |
